These are literature values, as cited in publication PMC11437099 (Nature Communications, 2024).

Where two headings read alike, the source gives them in different places.

Data set [1] relates to patients with type 2 diabetes.
Data set [2] deals with patients with type 2 diabetes. The source holds these as a separate data set.

For the substance “dulaglutide: approved GLP-1 analog (Trulicity)”, in data set [1] (0.75 and 1.5 mg at 26 weeks), the “HbA1c change from baseline” value is −1.25 to −1.46% and the “Participants achieving HbA1c <7.0%” value is given as 63–72%. In addition, the “Body weight change from baseline” value in data set [2] (0.75 and 1.5 mg doses at 26 weeks) is given as −1.0 to −1.5 kg.
For the substance “liraglutide: approved GLP-1 analog (Victoza, Saxenda) (HAEGTFTSDVSSYLEGQAAKEFIAWLVRGRG; chains of the INN, looked up)”, the “Participants achieving HbA1c <7.0%” value in data set [1] (1.2 and 1.8 mg at 52 weeks) is reported as 43–51%. For the same substance, in data set [2] (1.2 and 1.8 mg at 52 weeks), the “Body weight change (weight loss)” value is given as −2.05 to −2.45 kg.
